Consider two compounds from patent US4327097A, “Novel penicillins” (Toyama Chemical Co., Ltd., priority 1974, dated 1982).

The test system of one assay is Klebsiella pneumoniae. In words: MIC, plate method, standard strains. It is filed as cell-based. The note with it: Table 4, standard strain; unit assumed. The procedure, abridged: (§1)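 Agar plate dilution on Heart infusion agar (pH 7.4); inoculum 10^4 cells per plate from a 10^6 cells/ml suspension. MIC taken as the lowest concentration inhibiting growth.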
Assay [1] deals with Staphylococcus aureus 209p. Description: MIC, plate method, standard strains. The assay is classed as cell-based. The conditions noted are these: Table 4, standard strain; unit assumed. An outline of the steps:
as §1

The subject of the next assay is Escherichia coli NIHJ. Description: MIC, plate method, standard strains. The note with it: Table 4, standard strain; unit assumed. The assay is classed as cell-based. An outline of the steps:
as §1

The test system of another assay is Proteus vulgaris 3027. Description: MIC, plate method, standard strains. The assay is classed as cell-based. The conditions noted are these: Table 4, standard strain; unit assumed. The procedure, abridged:
as §1

For assay [2], the system named is Pseudomonas aeruginosa I.F.O. In words: MIC, plate method, standard strains. The assay is classed as cell-based. The conditions noted are these: Table 4, standard strain; unit assumed. An outline of the steps: as §1
Assay [3] has as its target T1, β-lactamase, Proteus vulgaris GN 76 (Proteus vulgaris, UniProt P52664).
T1 construct: By using the supernatant of enzyme fluid; endogenous in cells; host or cells: Proteus vulgaris GN 76 (penicillin G-induced cells, sonicated, 15,000 r.p.m. supernatant)
Description: Resistant activity against β-lactamase, iodometric assay. It is filed as biochemical. The note with it: control Cephalorizine = 100. The method, then:
(§2) (4) Resistant activity of each cephalosporin compound against β-lactamase, Proteus vulgaris GN 76 and Escherichia freundii GN 346:
(§3) The resistant activity of each cephalosporin compound against β-lactamase was measured in the manner described below.
(§4) β-lactamase was prepared from Proteus vulgaris GN 76 and Escherichia freundii GN 346. 10 ml of an overnight culture in Heart Infusion broth was diluted with 100 ml of a medium containing 2 g of yeast extract, 10 g of polypeptone, 2 g of glucose, 7 g of disodium hydrogen phosphate, 2 g of potassium dihydrogen phosphate, 1.2 g of ammonium sulfate and 0.4 g of magnesium sulfate, per liter, and incubated with shaking at 37° C. After incubation of 2 hrs, Penicillin G (50 μg/ml) was added as the inducer, and further incubated for 2 hrs. The resulting cells were collected by centrifugation (5,000 r.p.m.×10 min.) and washed two times with 0.1 M phosphate buffer (pH 7.0). Subsequently, the cells were subjected to sonication (20 KHz, 5 min.) and then centrifuged at 15,000 r.p.m. for 60 min. By using the supernatant of enzyme fluid, the stability of each compound against β-lactamase was determined by the iodometric assay method. Each numeral shown in Table 7-2 is a relative activity value calculated by assuming as 100 the activity of the control Cephalorizine.

The target of assay [4] is β-lactamase, Escherichia freundii GN 346 (Citrobacter freundii, UniProt Q46041). Described as above. It is filed as biochemical. The conditions noted are these: control Cephalorizine = 100. Here is the method:
as §2, §3, §4

The structures appear in SMILES notation. In brackets after ≈: the same amount, converted by molar mass. Bounds are passed on as bounds.

Sequence of β-lactamase, Escherichia freundii GN 346 (Q46041 entry or part of it): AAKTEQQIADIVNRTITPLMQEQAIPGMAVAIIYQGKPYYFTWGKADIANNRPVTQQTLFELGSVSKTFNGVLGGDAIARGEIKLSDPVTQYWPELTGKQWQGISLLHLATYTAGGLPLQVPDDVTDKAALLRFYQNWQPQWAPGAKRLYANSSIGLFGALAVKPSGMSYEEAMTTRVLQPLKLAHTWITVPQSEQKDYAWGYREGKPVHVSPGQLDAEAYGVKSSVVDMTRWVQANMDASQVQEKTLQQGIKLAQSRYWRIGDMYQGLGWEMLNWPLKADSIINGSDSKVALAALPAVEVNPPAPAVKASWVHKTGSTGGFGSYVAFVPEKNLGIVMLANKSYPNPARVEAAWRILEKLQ
T1 sequence (P52664 30-300): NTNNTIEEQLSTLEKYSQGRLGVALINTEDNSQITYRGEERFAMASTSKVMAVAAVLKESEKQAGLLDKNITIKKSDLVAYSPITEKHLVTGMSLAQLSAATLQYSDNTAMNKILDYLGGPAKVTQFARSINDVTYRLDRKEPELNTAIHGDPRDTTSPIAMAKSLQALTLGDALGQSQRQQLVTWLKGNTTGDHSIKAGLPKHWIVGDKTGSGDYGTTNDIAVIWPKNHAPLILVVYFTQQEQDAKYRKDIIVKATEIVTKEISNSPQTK

Regarding `CCN1CCN(C(=O)NC(C(=O)NC2C(=O)N3C(C(=O)O)=C(COC(C)=O)CSC23)c2ccc(O)cc2)C(=O)C1=O` (single isomer, unassigned) [Compound No. 81], in the assay with Klebsiella pneumoniae, the MIC Klebsiella pneumoniae is less than 1.57 µg/mL. This compound registered an MIC Staphylococcus aureus 209p in assay [1] of less than 1.57 µg/mL. The compound also registered an MIC Escherichia coli NIHJ against Escherichia coli NIHJ of less than 1.57 µg/mL. Further, the MIC Proteus vulgaris 3027 in the assay with Proteus vulgaris 3027 was less than 1.57 µg/mL. The MIC Pseudomonas aeruginosa I.F.O. in assay [2] came to 12.5 µg/mL (≈ 21.2 µM). Moreover, the “Relative activity (%) against β-lactamase, Pr. vulgaris GN 76” value in assay [3] is given as 6%. Besides, in assay [4], the “Relative activity (%) against β-lactamase, E. freundii GN 346” value stood at 0.4%.

Compound `CCN1CCN(C(=O)NC(C(=O)NC2C(=O)N3C(C(=O)O)=C(CSc4nnc(C)s4)CSC23)c2ccc(O)cc2)C(=O)C1=O` (single isomer, unassigned) [Compound No. 76] registered an MIC Klebsiella pneumoniae in the assay with Klebsiella pneumoniae of 0.79 µg/mL (≈ 1.19 µM). Further, the MIC Staphylococcus aureus 209p in assay [1] came out at 1.57 µg/mL (≈ 2.37 µM). This compound gave an MIC Escherichia coli NIHJ in the assay with Escherichia coli NIHJ of less than 0.4 µg/mL. The MIC Proteus vulgaris 3027 in the assay with Proteus vulgaris 3027 was determined as 3.13 µg/mL (≈ 4.73 µM). This compound had an MIC Pseudomonas aeruginosa I.F.O. in assay [2] of 50 µg/mL (≈ 75.6 µM). In addition, the “Relative activity (%) against β-lactamase, Pr. vulgaris GN 76” value in assay [3] was determined as 11%. Also, in assay [4], the “Relative activity (%) against β-lactamase, E. freundii GN 346” value came out at 1%.
